Results from patent publication US7671038B1, “Method of therapeautic treatments including human immunodeficiency virus (HIV) disease and other conditions in a human host by administering adenine nucleotides” (priority 1993, dated 2010).
Entries after “also recorded” stand apart in the source; their conditions may differ.

Legend:
T-cells = conditions: HIV seropositive individuals (without AIDS); cited from earlier work
TNF-α production = conditions: cited from earlier work; for TNF-α biosynthesis inhibition: conclusion of Parmely et al.
[1] = Phase I continuous intravenous ATP infusions in advanced cancer patients: total blood (red blood cell) ATP levels and adverse effects; type: in vivo, human; conditions: after 48 hours of infusion
Source text: In advanced cancer patients with cachexia and malnutrition, the basal blood ATP levels were lower than normal but could be elevated to well above a normal level after ATP infusions.

[2] = cited from earlier work
[3] = system: tumor-bearing murine models; conditions: cited from earlier work
endotoxin lethality = conditions: mice; cited from earlier work
[4] = activated mouse peritoneal macrophages

C[C@H]1O[C@@H](n2cnc3c(N)ncnc32)C[C@@H]1O [ddAdo, 2′,5′-dideoxyadenosine]
cyclic AMP levels (T-cells): reduce | proliferative capacity of T-cells to recall antigens and T-cell cytotoxicity (T-cells): increase

Nc1ncnc2c1ncn2[C@H]1CC[C@@H](O)C1 [MDL201112, reference compound]
TNF-α biosynthesis inhibition (TNF-α production): potent inhibitors

Nc1ncnc2c1ncn2[C@@H]1O[C@H](COP(=O)(O)OP(=O)(O)OP(=O)(O)O)[C@@H](O)[C@H]1O [ATP, adenosine 5′triphosphate]
change of total blood levels of ATP (red blood cell ATP pools) ([1]; most patients): doubling | total blood ATP levels ([1]; basal levels 0.9-1 mM): 1.6 to 2 mM | change of blood (red blood cell) ATP levels ([2]; intravenous infusion 50 μg/kg min, after 24 hours, advanced cancer patients): doubling | decline of elevated blood ATP levels after termination of the ATP infusions ([2]; return of total blood ATP to basal levels): declined over a period of several days; also recorded: declined within several days | host weight loss ([3]; cachectic tumor model, murine hosts): markedly inhibit | tumor growth ([3]; elevated ATP levels, tumor-bearing murine models): inhibit

Nc1ncnc2c1ncn2[C@@H]1O[C@H](CO)[C@@H](O)[C@H]1O [adenosine]
RNA levels for TNF-α (TNF-α production; [4]): no effect | TNF-α production (TNF-α production; [4]): inhibited | TNF-α biosynthesis inhibition (TNF-α production): potent inhibitors | protection against endotoxin lethality (endotoxin lethality): failed to protect
